# From patent publication US11020408B2, “Polymer composed of repeat units having a biologically active molecule attached thereto via a pH-sensitive bond” (SPIREA LIMITED, priority 2014, dated 2021)
# Test system: Mycobacterium bovis BCG-lux grown in human monocyte-derived macrophages
# Type: cell-based
SMILES,antibiotic efficacy (in words),antimycobacterial activity (in words),increase of BCG-lux bioluminescence compared to untreated cells [%],reduction of BCG-lux bioluminescence [%],viability lower than control cells [%],effect on BCG-lux viability (in words)
"NNC(=O)c1ccncc1 [INH, isoniazid]",equivalent to the antibiotic efficacy of E80 nanoparticles,no antimycobacterial activity,32,53,15,–
"CC[C@@H](CO)NCCN[C@@H](CC)CO [EMB, ethambutol]",–,–,–,–,–,did not reduce BCG-lux viability
